Source: US20160130278A1 (TAISHO PHARMACEUTICAL CO., LTD, priority 2013, published 2016)

The compounds below were run against T1, human type 1 glycine transporter (GlyT1) (Homo sapiens, UniProt P48067) (assay: Glycine uptake inhibition experiment ([3H]glycine uptake)). Details: GlyT1.
T1 construct: T98G cells (glioma cells) expressing human type 1 glycine transporter (GlyT1) were used
T1 sequence (P48067 1-706): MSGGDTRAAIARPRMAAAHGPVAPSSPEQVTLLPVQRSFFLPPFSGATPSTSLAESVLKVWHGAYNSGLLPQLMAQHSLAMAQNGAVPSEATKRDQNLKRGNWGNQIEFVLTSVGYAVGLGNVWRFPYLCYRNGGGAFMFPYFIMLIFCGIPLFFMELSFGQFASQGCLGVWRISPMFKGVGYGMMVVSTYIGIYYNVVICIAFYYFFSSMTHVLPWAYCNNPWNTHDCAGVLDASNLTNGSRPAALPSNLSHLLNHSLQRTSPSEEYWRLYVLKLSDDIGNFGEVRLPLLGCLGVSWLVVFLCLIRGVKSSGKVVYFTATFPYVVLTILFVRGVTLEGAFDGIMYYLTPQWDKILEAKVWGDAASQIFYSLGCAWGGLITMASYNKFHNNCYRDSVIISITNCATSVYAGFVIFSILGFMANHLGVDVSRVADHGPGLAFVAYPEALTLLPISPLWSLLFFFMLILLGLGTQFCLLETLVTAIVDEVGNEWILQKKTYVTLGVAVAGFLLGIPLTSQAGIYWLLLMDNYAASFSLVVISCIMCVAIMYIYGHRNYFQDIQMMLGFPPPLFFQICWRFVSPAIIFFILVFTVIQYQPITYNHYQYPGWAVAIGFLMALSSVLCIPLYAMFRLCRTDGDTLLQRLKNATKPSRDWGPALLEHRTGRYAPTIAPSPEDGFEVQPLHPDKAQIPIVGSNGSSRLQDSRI
Type: cell-based
Procedure: Glycine Uptake Inhibition Experiment
A glycine uptake experiment was conducted in accordance with the method published in Neuron, 8, 927-935, 1992. In the experiment, T98G cells (glioma cells) expressing human type 1 glycine transporter (GlyT1) were used. The T98G cells were seeded in a 96-well plate at 2.0×10^4 cells/well and cultured overnight in a CO2 incubator. The test substance was dissolved in a 100% DMSO solution and then dissolved in a 10 mM HEPES buffer solution (pH 7.4) containing 150 mM sodium chloride, 1 mM calcium chloride, 5 mM potassium chloride, 1 mM magnesium chloride, 10 mM glucose and 0.2% bovine serum albumin. After removing the cell culture medium, the test substance was subjected to a 10-min pretreatment. Subsequently, the test substance and [^3H] glycine (final concentration: 250 nM) were added to the cells and reaction was performed at room temperature for 15 minutes. After the end of the reaction, the extracellular fluid was aspirated with a manifold to remove excess labeled glycine present outside the cells, and then the cells were lysed with a 0.5 M aqueous sodium hydroxide solution. The glycine content in the cells was determined by measuring the radioactivity in the cell lysate with a liquid scintillation counter. Glycine uptake in the presence of 10 μM ALX5407 was defined as non-specific uptake, and the value calculated by subtracting the amount of the non-specific uptake from the total uptake in the absence of 10 μM ALX5407 was defined as specific uptake. In addition, glycine uptake inhibitory activity (IC50 value) was calculated from an inhibition curve at the concentrations of each test substance ranging from 10^−9 to 10^−5 M. It should be noted that ALX5407 is an HCl salt of N-[(3R)-3-([1,1′-biphenyl]-4-yloxy)-3-(4-fluorophenyl)propyl]-N-methylglycine.

| Structure (SMILES) | IC50 |
| --- | --- |
| CCn1cc(-c2cccc(C(NC(=O)c3ccnc(C(F)(F)F)c3)C3(O)CCC(F)(F)CC3)c2)cn1 (stereo not drawn) [Compound 172, N-{(4,4-difluoro-1-hydroxycyclohexyl)[3-(1-ethyl-1H-pyrazol-4-yl)phenyl]methyl}-2-(trifluoromethyl)pyridine-4-carboxamide] | 5 µM |
| CCn1cc(-c2cccc(C(NC(=O)c3cccc(C(F)(F)F)c3Cl)C3(O)CCC(F)(F)CC3)c2)cn1 (single isomer, unassigned) [Compound 121, 2-chloro-N-{(4,4-difluoro-1-hydroxycyclohexyl)[3-(1-ethyl-1H-pyrazol-4-yl)phenyl]methyl}-3-(trifluoromethyl)benzamide] | 7.4 µM |
| O=C(NC(c1ccc(F)cc1Cl)C1(O)CCCC1)c1nccc(C(F)(F)F)c1Cl (single isomer, unassigned) [Compound 100, 3-chloro-N-[(2-chloro-4-fluorophenyl)(1-hydroxycyclopentyl)methyl]-4-(trifluoromethyl)pyridine-2-carboxamide] | 0.059 µM |
| O=C(NC(c1cccc(Br)c1)C1(O)CCC(F)(F)CC1)c1nccc(C(F)(F)F)c1Cl (single isomer, unassigned) [Compound 89, N-[(3-bromophenyl)(4,4-difluoro-1-hydroxycyclohexyl)methyl]-3-chloro-4-(trifluoromethyl)pyridine-2-carboxamide] | 1.1 µM |
| O=C(N[C@H](c1cccc(Br)c1)[C@]1(O)CC[C@@H](F)CC1)c1nccc(C(F)(F)F)c1Cl [Compound 109, N-[(R)-(3-bromophenyl)(cis-4-fluoro-1-hydroxycyclohexyl)methyl]-3-chloro-4-(trifluoromethyl)pyridine-2-carboxamide] | 6.1 µM |
| O=C(NC(c1cccc(-c2cccnc2)c1)C1(O)CCCC1)c1nccc(C(F)(F)F)c1Cl (stereo not drawn) [Compound 20, 3-chloro-N-{(1-hydroxycyclopentyl)[3-(pyridin-3-yl)phenyl]methyl}-4-(trifluoromethyl)pyridine-2-carboxamide] | 0.017 µM |
| CN(C)Cc1cccc(C(NC(=O)c2nccc(C(F)(F)F)c2Cl)C2(O)CCCC2)c1 (stereo not drawn) [Compound 112, 3-chloro-N-[{3-[(dimethylamino)methyl]phenyl}(1-hydroxycyclopentyl)methyl]-4-(trifluoromethyl)pyridine-2-carboxamide] | 1.8 µM |
| O=C(NC(c1cccc(F)c1)C1(O)CCCC1)c1cccc(C(F)(F)F)c1Cl (stereo not drawn) [Compound 65, 2-chloro-N-[(3-fluorophenyl)(1-hydroxycyclopentyl)methyl]-3-(trifluoromethyl)benzamide] | 0.27 µM |
| CCn1cc(-c2cccc(C(NC(=O)c3ccc(F)cc3C(F)(F)F)C3(O)CCC(F)(F)CC3)c2)cn1 (stereo not drawn) [Compound 192, N-{(4,4-difluoro-1-hydroxycyclohexyl)[3-(1-ethyl-1H-pyraozl-4-yl)phenyl]methyl}-4-fluoro-2-(trifluoromethyl)benzamide] | 0.34 µM |
| O=C(NC(c1cccc(-c2cccnc2)c1)C1(O)CCC(F)(F)CC1)c1nccc(C(F)(F)F)c1Cl (stereo not drawn) [Compound 146, 3-chloro-N-{(4,4-difluoro-1-hydroxycyclohexyl)[3-(pyridin-3-yl)phenyl]methyl}-4-(trifluoromethyl)pyridine-2-carboxamide] | 0.14 µM |
| O=C(NC(c1cccc(Br)c1)C1(O)CCC(F)CC1)c1nccc(C(F)(F)F)c1Cl (stereo not drawn) [Compound 96, N-[(3-bromophenyl)(4-fluoro-1-hydroxycyclohexyl)methyl]-3-chloro-4-(trifluoromethyl)pyridine-2-carboxamide] | 0.25 µM |
| CCn1cc(-c2cccc(C(NC(=O)c3nccc(C(F)(F)F)c3Cl)C3(O)CCCC3)c2)cn1 (stereo not drawn) [Compound 10, 3-chloro-N-{[3-(1-ethyl-1H-pyrazol-4-yl)phenyl](1-hydroxycyclopentyl)methyl}-4-(trifluoromethyl)pyridine-2-carboxamide] | 0.013 µM |
| O=C(NC(c1cccc(-n2cccn2)c1)C1(O)CCCC1)c1nccc(C(F)(F)F)c1Cl (stereo not drawn) [Compound 80, 3-chloro-N-{(1-hydroxycyclopentyl)[3-(1H-pyrazol-1-yl)phenyl]methyl}-4-(trifluoromethyl)pyridine-2-carboxamide] | 0.16 µM |
| O=C(N[C@@H](c1cccc(-c2ncccn2)c1)C1(O)CCCC1)c1nccc(C(F)(F)F)c1Cl [Compound 36, 3-chloro-N-{(S)-(1-hydroxycyclopentyl)[3-(pyrimidin-2-yl)phenyl]methyl}-4-(trifluoromethyl)pyridine-2-carboxamide] | 0.13 µM |

Other lines, results leading:

| IC50 | Structure (SMILES) |
| --- | --- |
| 7.4 µM | Cc1nc2ccccn2c1C(=O)NC(c1cccc(F)c1Cl)[C@]1(O)CC[C@@H](F)CC1 (single isomer, unassigned) [Compound 261, N-[(2-chloro-3-fluorophenyl)(cis-4-fluoro-1-hydroxycyclohexyl)methyl]-2-methylimidazo[1,2-a]pyridine-3-carboxamide] |
| 0.45 µM | O=C(NC(c1cccc(F)c1Cl)[C@]1(O)CC[C@@H](F)CC1)c1nccc(C(F)(F)F)c1Cl (single isomer, unassigned) [Compound 214, 3-chloro-N-[(2-chloro-3-fluorophenyl)(cis-4-fluoro-1-hydroxycyclohexyl)methyl]-4-(trifluoromethyl)pyridine-2-carboxamide] |
| 0.9 µM | O=C(NC(c1cc(Cl)ccn1)[C@]1(O)CC[C@@H](F)CC1)c1nccc2ccccc12 (single isomer, unassigned) [Compound 334, N-[(4-chloropyridin-2-yl)(cis-4-fluoro-1-hydroxycyclohexyl)methyl]isoquinoline-1-carboxamide] |
| 0.22 µM | O=C(NC(c1ccccc1)[C@]1(O)CC[C@@H](F)CC1)c1nccc(C(F)(F)F)c1Cl (single isomer, unassigned) [Compound 238, 3-chloro-N-[(cis-4-fluoro-1-hydroxycyclohexyl)(phenyl)methyl]-4-(trifluoromethyl)pyridine-2-carboxamide] |
| 0.99 µM | Cc1ccc(Cl)c(C(=O)NC(c2cccc(F)c2Cl)[C@]2(O)CC[C@@H](F)CC2)c1 (single isomer, unassigned) [Compound 294, 2-chloro-N-[(2-chloro-3-fluorophenyl)(cis-4-fluoro-1-hydroxycyclohexyl)methyl]-5-methylbenzamide] |
| 0.85 µM | O=C(NC(c1cccnc1Cl)C1(O)CCC(F)(F)CC1)c1ccnc(C(F)(F)F)c1Cl (single isomer, unassigned) [Compound 341, 3-chloro-N-[(2-chloropyridin-3-yl)(4,4-difluoro-1-hydroxycyclohexyl)methyl]-2-(trifluoromethyl)pyridine-4-carboxamide] |
| 0.29 µM | CCn1cc(-c2cccc(C(NC(=O)c3cccc4ccccc34)C3(O)CCC(F)(F)CC3)c2)cn1 (single isomer, unassigned) [Compound 196, N-{(4,4-difluoro-1-hydroxycyclohexyl)[3-(1-ethyl-1H-pyrazol-4-yl)phenyl]methyl}naphthalene-1-carboxamide] |
| 0.21 µM | CCn1cc(-c2cccc(C(NC(=O)c3ccc(F)cc3C(F)(F)F)C3(O)CCC(F)(F)CC3)c2)cn1 (single isomer, unassigned) [Compound 215, N-{(4,4-difluoro-1-hydroxycyclohexyl)[3-(1-ethyl-1H-pyrazol-4-yl)phenyl]methyl}-4-fluoro-2-(trifluoromethyl)benzamide] |
| 5.9 µM | CCn1cc(-c2cccc(C(NC(=O)c3cc(Cl)ccc3C(F)(F)F)C3(O)CCC(F)(F)CC3)c2)cn1 (single isomer, unassigned) [Compound 218, 5-chloro-N-[(4,4-difluoro-1-hydroxycyclohexyl)[3-(1-ethyl-1H-pyrazol-4-yl)phenyl]methyl}-2-(trifluoromethyl)benzamide] |

Same assay, conditions: human GlyT1

| IC50 | Structure (SMILES) |
| --- | --- |
| 0.12 µM | CS(=O)(=O)c1cnc(C(F)(F)F)cc1C(=O)NC(c1ccccc1Cl)C1(O)CCC(F)(F)CC1 (single isomer, unassigned) [Compound 403, N-[(2-chlorophenyl)(4,4-difluoro-1-hydroxycyclohexyl)methyl]-5-(methylsulfonyl)-2-(trifluoromethyl)pyridine-4-carboxamide] |
